Patent publication US8487003B2, “Treatment of cancer by administration of perfluorooctanoic acid” (CXR Biosciences Limited, priority 2001, dated 2013)
pEC50: −log10 of the molar value.

Legend:
[1] = tested on: male Fischer 344 rats; assay: APFO in diet of male Fischer 344 rats for up to one year; assay type: in vivo, rat; conditions: 300 ppm in diet
Procedure: Body weights were initially determined daily and then weekly. Food consumption was determined weekly. Clinical observations were made daily.
Rats were sacrificed at 1, 2, 7, 14, 28, 90, 182 and 365 days. There were 8 rats per group. At sacrifice blood was sampled by cardiac puncture and submitted for clinical chemistry.

[2] = tested on: C57BL/6J-ob/ob mice; assay: Obese ob/ob mouse model, oral gavage daily for 14 days; assay type: in vivo
Procedure: (§1) The C57BL/6J-ob/ob mouse is an obese, leptin-deficient animal that is widely accepted as a model of obesity and diabetes. Age-paired, disease-free (lean) animals (C57BL/6J-+/+) were also included in the study to observe the ‘normal’ response.
(§2) One group of 10 ob/ob mice was also treated with vehicle (water) alone.
(§3) Twenty-four hours after the last dose the animals were killed by an increasing concentration of carbon dioxide. Blood was collected by cardiac puncture and plasma prepared and stored at −70° C. until analysed. Major tissues were weighed, sampled, flash frozen in liquid nitrogen and stored at −70° C.
(§4) Plasma was analysed for triglycerides, cholesterol and glucose using kits purchased from Sigma (Poole, Dorset). Concentrations of plasma insulin and leptin were determined using commercially available enzymeimmunoassay-based kits from Amersham Life Sciences and Crystalchem Inc., (Chicago) respectively. All assays were carried out as specified by the manufacturer.

[3] = tested on: C57BL/6J-+/+ mice; assay: Lean disease-free +/+ mice, oral gavage daily for 14 days; assay type: in vivo, mouse; conditions: 25 mg/kg/day
Procedure: as §1, §2, §3, §4

[4] = tested on: GK/Mol rats; assay: Diabetic GK/Mol rat model, oral gavage daily for 14 days; assay type: in vivo
Procedure: (§5) The GK/Mol rat is a non-obese, diabetic animal that is widely accepted as a model of Type II diabetes. In order to measure the ‘normal’ response, non-diabetic Wistar rats were also used in the study.
(§6) One group of 10 GK/Mol rats was also treated with vehicle (water) alone.
as §3
(§7) Plasma was analysed for, triglycerides, cholesterol, glucose, insulin and leptin as described in section 1.1.1.

[5] = tested on: Wistar rats; assay: Non-diabetic Wistar rats, oral gavage daily for 14 days; assay type: in vivo, rat
Procedure: as §5, §6, §3, §7

[6] = tested on: HT-29 cells; assay: In vitro cytotoxicity (MTT), HT-29; assay type: cell-based, human; conditions: HT-29, 4 hours exposure
Procedure: (§8) HT-29 cells (human colon tumour-derived), MCF7 cells (human breast cancer-derived) and HepG2 cells (human liver cancer-derived) were cultured in Dulbecco's Modified Eagles Medium (DMEM) supplemented with 10% heat-inactivated foetal calf serum, 2 mM L-glutamine, penicillin (50 IU/ml), streptomycin (50 μg/ml) and 1% non-essential amino acids. Cells were harvested by trypsinisation and diluted to 5×10^4 cells/ml, and 200 μl of cell suspension was plated into each well of a 96 well plate and allowed to attach overnight at 37° C. with 5% CO2. […] 20 μl of a 5 mg/1 m MTT solution was added to each well and the cells were incubated for 4 hours at 37° C. The medium was removed and 200 μl DMSO was added to dissolve formazan crystals. Plates were read at 570 nm and background at 690 nm was subtracted.

[7] = tested on: MCF7 cells; assay: In vitro cytotoxicity (MTT), MCF7; assay type: cell-based, human; conditions: MCF7, 4 hours exposure
Procedure: as §8

[8] = tested on: HepG2 cells; assay: In vitro cytotoxicity (MTT), HepG2; assay type: cell-based, human; conditions: HepG2, 4 hours exposure
Procedure: as §8

[9] = tested on: HT-29 xenograft; assay: HT-29 xenograft model in nude mice; assay type: in vivo, nu/nu mice; conditions: for lag phase of tumour growth: ip 3 times per week
Procedure: Athymic nude (nu/nu) mice from ICRF stock (HsdOla:ICRF-nu) were obtained from Clare Hall (Pofters Bar, UK). All animals were female and approximately 9 weeks old. Animals, housed in isolator cages and handled under laminar flow, were divided into one control group and two treatment groups, with 5 female mice per group for both the prophylactic and therapeutic schedules
HT-29 cells were cultured according to the conditions described in section 2.1.1. Cells were harvested, pooled by centrifugation and resuspended in 5 ml medium to which 5 ml Matrigel (basement membrane matrix) was added. 100 μl of cell suspension was injected subcutaneously into each flank of the mice (1.75×10^6 cells per flank).
The volume of the dosing solution was 10 ml/kg bodyweight. Control animals received an equivalent volume of water.
Animal bodyweights were recorded throughout the study. Tumour growth was measured 3 times per week using digital calipers and the volume was calculated using the formula:
Where d1=mean length (n=2) and d2=mean width (n=2). (NB, n=4 if tumour was an irregular shape).
The maximum permitted tumour volume, according to the terms of the Home Office license, was 1.44 cm^3. Results were expressed graphically for each time point as mean tumour volumes. Tumour weights were recorded at the end of the study, and tumour samples were either snap frozen in liquid nitrogen or fixed in formal saline for further analysis.

[10] = biological target: T1, mouse PPAR alpha (Mus musculus, UniProt P23204); assay: Mouse PPAR alpha transactivation assay in COS-1 cells; assay type: cell-based; conditions: luciferase reporter, 16 hours, read-out: EC50, activation of mouse PPAR alpha
T1 construct: expressed in transfected cells; host or cells: COS-1 cells
T1 sequence (P23204 1-468): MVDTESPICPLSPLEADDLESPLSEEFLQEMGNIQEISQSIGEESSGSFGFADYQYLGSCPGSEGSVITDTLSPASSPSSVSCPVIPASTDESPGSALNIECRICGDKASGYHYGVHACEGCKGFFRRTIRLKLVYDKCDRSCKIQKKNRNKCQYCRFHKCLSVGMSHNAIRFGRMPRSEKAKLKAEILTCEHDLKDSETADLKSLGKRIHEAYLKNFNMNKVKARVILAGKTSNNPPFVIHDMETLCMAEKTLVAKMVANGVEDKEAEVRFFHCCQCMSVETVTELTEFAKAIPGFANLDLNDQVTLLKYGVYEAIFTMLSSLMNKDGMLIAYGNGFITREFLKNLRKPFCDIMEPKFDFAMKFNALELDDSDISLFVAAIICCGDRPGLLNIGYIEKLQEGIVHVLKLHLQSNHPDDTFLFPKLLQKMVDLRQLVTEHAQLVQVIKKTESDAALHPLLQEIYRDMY

Compound: N.O=C(O)C(F)(F)C(F)(F)C(F)(F)C(F)(F)C(F)(F)C(F)(F)C(F)(F)F [APFO, ammonium perfluorooctanoate]
- adverse clinical symptoms or changes in activity [1]: not accompanied by any adverse clinical symptoms
- bodyweight gain [1]: marked reductions
- plasma triglycerides ([1]; 7 days and beyond): decreased
- food consumption per rat, % of control values ([1]; after first week): 80-90%
- plasma cholesterol concentration ([1]; all time points (1-365 days)): decreased
- plasma glucose concentration ([1]; all time points (1-365 days)): decreased
- plasma insulin concentration ([1]; all time points (1-365 days)): decreased
- decrease of food consumed per unit bodyweight ([1]; first week): approximately 30%
- food consumption per rat, % of control consumption ([1]; first week of treatment): approximately 50%
- body weights lower than concurrent controls ([1]; up to one year): 25-30%
- other adverse clinical observations ([2]; 5, 15, 25 mg/kg/day, 14 days): No other adverse clinical observations
- reduction in plasma insulin concentration ([2]; all treated ob/ob mice (5, 15, 25 mg/kg/day)): greater than 90%
- plasma triglyceride concentration ([2]; ob/ob, 5 mg/kg/day): no effect
- reduction of plasma glucose ([2]; ob/ob, 5 mg/kg/day): approximately 50%
- bodyweight ([2]; ob/ob, 5 mg/kg/day, 14 days): unaffected
- bodyweight loss over the study period ([2]; ob/ob, 15 mg/kg/day, 14 days): 20%
- reduction in plasma cholesterol concentration ([2]; ob/ob, 25 mg/kg/day): ~30%
- bodyweight loss as percentage of initial bodyweight ([2]; ob/ob, 25 mg/kg/day, 14 days): 33%
- plasma triglyceride, % of control values ([2]; ob/ob, 15 or 25 mg/kg/day): 40%
- plasma glucose, % of control values ([2]; ob/ob, 15 or 25 mg/kg/day, dose-related): approximately 20%
- epididymal fat pad weight ([2]; ob/ob, dose-related): decreased
- food consumption lower than control mice ([2]; ob/ob, high dose 25 mg/kg/day): 76%
- food consumption lower than control mice ([2]; ob/ob, intermediate dose 15 mg/kg/day): 53%
- reduction in plasma cholesterol concentration ([2]; ob/ob, low and mid dose levels (5, 15 mg/kg/day)): not evident
- food consumption lower than control mice ([2]; ob/ob, low dose 5 mg/kg/day): 17%
- epididymal fat pad weight [3]: decreased
- overall food consumption lower than +/+ controls [3]: 31%
- plasma glucose, % of control values [3]: 55%
- plasma insulin concentration [3]: marked reduction
- plasma leptin concentration decreased [3]: to, or below the level of quantitation
- plasma triglycerides, % of control values [3]: 35%
- reduction in plasma cholesterol concentration [3]: ~30%
- bodyweight loss as percentage of initial bodyweight ([3]; 14 days): 26%
- plasma leptin concentration ([4]; GK/Mol rats): no differences
- plasma glucose, % of control values ([4]; GK/Mol, 30 mg/kg/day): about 85%
- total food consumption, % of control values ([4]; GK/Mol, 3, 10, 30 mg/kg, not related to dose): 86-98%
- plasma insulin, % of control values ([4]; GK/Mol, dose-dependent reduction reaching this value): about 10%
- body weight gain, % of control values ([4]; GK/Mol, high dose 30 mg/kg): 44%
- body weight gain, % of control values ([4]; GK/Mol, low dose 3 mg/kg): 90%
- body weight gain, % of control values ([4]; GK/Mol, mid dose 10 mg/kg): 71%
- bodyweight gain ([5]; 30 mg/kg): no effect
- food consumption versus controls ([5]; 30 mg/kg): no difference
- plasma cholesterol, % of control values ([5]; 30 mg/kg): 73%
- plasma insulin, % of control values ([5]; 30 mg/kg): about 10%
- group mean plasma leptin lower than controls by ([5]; 30 mg/kg/day): approximately 40%
- concentration eliciting a cytotoxic effect [6]: exceeding 500 μM
- concentration eliciting a cytotoxic effect [7]: exceeding 500 μM
- concentration eliciting a cytotoxic effect [8]: exceeding 500 μM
- animal body weight versus control ([9]; prophylactic and therapeutic groups, 15 and 25 mg/kg ip): no significant difference
- macroscopic appearance of tumours ([9]; prophylactic group, control tumours solid): fluid-filled
- tumour volume course ([9]; prophylactic, 15 mg/kg ip): continued to increase
- tumour weight smaller than in control animals ([9]; prophylactic, 15 mg/kg ip): 22%
- time after which tumour growth reached a plateau ([9]; prophylactic, 25 mg/kg ip): 26 days
- tumour weight smaller than in control animals ([9]; prophylactic, 25 mg/kg ip): 58%
- lag phase of tumour growth ([9]; prophylactic, control 15 days): 22 days
- tumour weight smaller than controls ([9]; therapeutic, 15 mg/kg ip): 45%
- tumour weight smaller than controls ([9]; therapeutic, 25 mg/kg ip): 37%
- plateau of tumour growth ([9]; therapeutic, highest dose group 25 mg/kg, study incomplete): No plateau was reached
- lag phase of tumour growth ([9]; therapeutic, control 17 days): 26 days
- pEC50 [10]: 3.99
